Patent US11224601B1, “Compounds that inhibits MCL-1 protein” (priority 2017, dated 2022)
Where two headings read alike, the source gives them in different places.

Experiments:
[1] = molecular target: recombinant human Mcl-1 (Mcl-1/Bim interaction) (Homo sapiens (Human), UniProt Q07820); test: biochemical; assay type: binding; settings: cell free Mcl-1:Bim TR-FRET; read-out: Mcl-1 HTRF IC50
Procedure: Cell free Mcl-1:Bim Affinity Assay (Mcl-1 HTRF)
The inhibition of the Mcl-1/Bim interaction was measured using a time-resolved fluorescence resonance energy transfer (TR-FRET) assay. The recombinant human Mcl-1 (C-terminally 6×His tagged Mcl-1 containing residues 171-327) was generated at Amgen Inc (Thousand Oaks, Calif.). A biotinylated peptide derived from human Bim (residues 51-76) was purchased from CPC Scientific (San Jose, Calif.). The TR-FRET assay was conducted in a 384-well white OptiPlate™ (PerkinElmer, Waltham, Mass.) in a total volume of 40 μL. The reaction mixture contained 0.1 nM Mcl-1(171-327), 0.05 nM biotin-Bim(51-76), 0.05 nM LANCE® Eu-W1024 Anti-6×His (PerkinElmer), 0.072 nM Streptavidin-Xlent (Cisbio, Bedford, Mass.), and serially diluted test compounds in the binding buffer of 20 mM Hepes, pH 7.5, 150 mM NaCl, 0.016 mM Brij® 35, and 1 mM dithiothreitol. Test compounds were pre-incubated with Mcl-1(171-327) and biotin-Bim (51-76) for 60 min before addition of the detection mixture (LANCE® Eu-W1024 Anti-6×His and Streptavidin-Xlent). The reaction plates were further incubated overnight and then were read on an Envision® multimode reader (PerkinElmer). Fluorescence signals were measured at 620 nm (40-nm bandwidth) and 665 nm (7.5-nm bandwidth) with a 60 μs delay after excitation at 320 nm (75-nm bandwidth). The signal ratio at 665/620 nm corresponded to the Mcl-1/Bim interaction and was used in all data analyses. The IC50 values of test compounds were determined from duplicate data by analyzing competition curves using a four-parameter sigmoidal model in GraphPad Prism (GraphPad Software, San Diego, Calif.) or in Genedata Screener® (Genedata, Basel, Switzerland).

OPM-2 Luc cells [2] = test: Tumor Pharmacodynamics (PD) model; assay type: in vivo; settings: dosed orally to female athymic nude mice inoculated with OPM-2 Luc cells; compared with Reference Compound 1
Source text: Tumor Pharmacodynamics (PD)
FIGS. 1-7 illustrate the PD results of the cited Examples. The Reference Compound 1, an internal Amgen MC1-1 inhibitor compound made by one of the general schemes outlined in U.S. Pat. No. 9,562,061, herein incorporated by reference, is (1S,3′R,6′R,7′S,8′E,12′R)-6-chloro-12′-ethyl-7′-methoxy-3,4-dihydro-2H,15′H-spiro[naphthalene-1,22′-[20]oxa[13]thia[1,14]diazatetracyclo[14.7.2.0˜3,6˜.0˜19,24˜]pentacosa[8,16,18,24]tetraen]-15′-one 13′,13′-dioxide

OPM-2 Luc cells [3] = test: OPM-2 xenograft efficacy model; assay type: in vivo; settings: dosed orally to female athymic nude mice inoculated with OPM-2 Luc cells
[4] = system: OPM-2 human multiple myeloma cell line; test: Cell Viability Assay (OPM-2 10 FBS), CellTiter-Glo; assay type: cell-based
Procedure, shortened: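 OPM-2 myeloma cells seeded at 3000 cells/well in RPMI 1640 with 10% FBS and exposed to serially diluted compounds for 16 h at 37° C., 5% CO2.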

recombinant human Mcl-1 (Mcl-1/Bim interaction), sequence (Q07820 171-327): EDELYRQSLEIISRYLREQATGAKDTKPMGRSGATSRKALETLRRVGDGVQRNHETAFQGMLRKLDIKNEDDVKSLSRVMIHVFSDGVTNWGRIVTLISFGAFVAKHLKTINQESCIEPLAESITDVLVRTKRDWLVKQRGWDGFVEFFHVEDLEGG

Molecule: CCO[C@]1(CN2CCN(C3COC3)CC2)/C=C/C[C@H](C)[C@@H](C)S(=O)(=O)NC(=O)c2ccc3c(c2)N(C[C@@H]2CC[C@H]21)C[C@@]1(CCCc2cc(Cl)ccc21)CO3 [Example 2, (1S,3′R,6′R,7′R,8′E,11′S,12′R)-6-chloro-7′-ethoxy-11′,12′-dimethyl-7′-((4-(3-oxetanyl)-1-piperazinyl)methyl)-3,4-dihydro-2H,15′H-spiro[naphthalene-1,22′-[20]oxa[13]thia[1,14]diazatetracyclo[14.7.2.0˜3,6˜.0˜19,24˜]pentacosa[8,16,18,24]tetraen]-15′-one 13′,13′-dioxide]
- IC50 [1]: 0.109 nM
- in vivo efficacy in a tumor PD model relative to Reference Compound 1 (OPM-2 Luc cells [2]): superior in vivo efficacy

Molecule: CCO[C@]1(CN2CCN3CCOC[C@@H]3C2)/C=C/C[C@H](C)[C@@H](CCOC)S(=O)(=O)NC(=O)c2ccc3c(c2)N(C[C@@H]2CC[C@H]21)C[C@@]1(CCCc2cc(Cl)ccc21)CO3 [Example 13, (1S,3′R,6′R,7′R,8′E,11′S,12′R)-6-chloro-7′-ethoxy-7′-((9aS)-hexahydropyrazino[2,1-c][1,4]oxazin-8(1H)-ylmethyl)-12′-(2-methoxyethyl)-11′-methyl-3,4-dihydro-2H,15′H-spiro[naphthalene-1,22′-[20]oxa[13]thia[1,14]diazatetracyclo[14.7.2.0˜3,6˜.0˜19,24˜]pentacosa[8,16,18,24]tetraen]-15′-one 13′,13′-dioxide]
- in vivo efficacy in an OPM-2 xenograft efficacy model (OPM-2 Luc cells [3]): in vivo efficacy
- IC50 [1]: 0.094 nM
- in vivo efficacy in a tumor PD model relative to Reference Compound 1 (OPM-2 Luc cells [2]): superior in vivo efficacy

Molecule: CCO[C@]1(CN2CCN(C3COC3)CC2)/C=C/C[C@H](C)[C@@H](CCOC)S(=O)(=O)NC(=O)c2ccc3c(c2)N(C[C@@H]2CC[C@H]21)C[C@@]1(CCCc2cc(Cl)ccc21)CO3 [Example 14, (1S,3′R,6′R,7′R,8′E,11′S,12′R)-6-chloro-7′-ethoxy-12′-(2-methoxyethyl)-11′-methyl-7′-((4-(3-oxetanyl)-1-piperazinyl)methyl)-3,4-dihydro-2H,15′H-spiro[naphthalene-1,22′-[20]oxa[13]thia[1,14]diazatetracyclo[14.7.2.0˜3,6˜.0˜19,24˜]pentacosa[8,16,18,24]tetraen]-15′-one 13′,13′-dioxide]
- IC50 [1]: 0.08 nM
- in vivo efficacy in a tumor PD model relative to Reference Compound 1 (OPM-2 Luc cells [2]): superior in vivo efficacy

Molecule: CO[C@@]1(CN2CCN3CCOC[C@@H]3C2)/C=C/C[C@H](C)[C@@H](C)S(=O)(=O)NC(=O)c2ccc3c(n2)N(C[C@@H]2CC[C@H]21)C[C@@]1(CCCc2cc(Cl)ccc21)CO3 [Example 18, (1S,3′R,6′R,7′S,8′E,11′S,12′R)-6-chloro-7′-((9aS)-hexahydropyrazino[2,1-c][1,4]oxazin-8(1H)-ylmethyl)-7′-methoxy-11′,12′-dimethyl-3,4-dihydro-2H,15′H-spiro[naphthalene-1,22′-[20]oxa[13]thia[1,14,25]triazatetracyclo[14.7.2.0˜3,6˜.0˜19,24˜]pentacosa[8,16,18,24]tetraen]-15′-one 13′,13′-dioxide]
- in vivo efficacy in an OPM-2 xenograft efficacy model (OPM-2 Luc cells [3]): in vivo efficacy
- IC50 [1]: 0.06 nM
- in vivo efficacy in a tumor PD model relative to Reference Compound 1 (OPM-2 Luc cells [2]): superior in vivo efficacy
- IC50 ([4]; Homo sapiens, OPM-2, 16 h, read-out: OPM-2 10% FBS IC50 IP (μM), OPM-2 cells, 10% FBS, 16 h, CellTiter-Glo): 0.022 µM

Molecule: (1S,3′R,6′R,7′R,8′E,11′S,12′R)-6-chloro-7′-((9aS)-hexahydropyrazino[2,1-c][1,4]oxazin-8(1H)-ylmethyl)-7′-methoxy-12′-(2-methoxyethyl)-11′-methyl-3,4-dihydro-2H,15′H-spiro[naphthalene-1,22′-[20]oxa[13]thia[1,14]diazatetracyclo[14.7.2.0˜3,6˜.0˜19,24˜]pentacosa[8,16,18,24]tetraen]-15′-one 13,13′-dioxide [Example 11]
- in vivo efficacy in an OPM-2 xenograft efficacy model (OPM-2 Luc cells [3]): in vivo efficacy
- IC50 ([4]; read-out: OPM-2 10% FBS IC50 IP, OPM-2 cells, 10% FBS, 16 h, CellTiter-Glo): 0.051 µM
